For assay [1], the system named is splenic CD3+CD4+ T cells and CD45+ cells. The assay can be described thus: Flow cytometry of spleen cells from the IMQ-induced psoriasis model. The class given is in vivo, mice. The conditions noted are these: topical BT-11 vs DMSO control. The method, then: (§1) Imiquimod (IMQ)-induced model. C57BL/6 mice were anesthetized, shaved, and briefly exposed to depilatory cream on the surface of the back. Mice were given three days to recover from the procedure prior to entry to the study. After 3 days, mice were challenged with approximately 60 mg of […] imiquimod cream daily by spreading cream over the shaved area. Treatment with BT-11 dihydrochloride salt (200 μg) in dimethyl sulfoxide (DMSO) or a DMSO control lacking BT-11 occurred by topical application to the shaved area. Mice were scored for erythema, scaling and skin thickness, summarized into a composite psoriasis area and severity index (PASI) score on a scale from 0 to 12, on day 7.
Analysis. Spleens were excised and crushed by microscope slides. Red blood cells were hypotonically lysed from the resultant suspension. Samples were filtered, washed and centrifuged prior to staining. Production of TNF, IL-17, and IL-21 were quantified from CD3+CD4+ T cells and IL6 from CD45+ by flow cytometry.
On the technique in general: Flow cytometry measures light scatter and fluorescence of single cells or particles in a stream.

Assay [2] relates to Imiquimod (IMQ)-induced psoriasis in C57BL/6 mice. The experiment in a line: Imiquimod (IMQ)-induced model of psoriasis, topical treatment, PASI scoring. The conditions noted are these: BT-11 dihydrochloride salt 200 μg in DMSO, vs DMSO control, day 7. The class given is in vivo. As for the experimental part:
as §1

The subject of assay [3] is MC903-induced atopic dermatitis in mice. The assay can be described thus: MC903-induced model of atopic dermatitis, topical cream, disease activity index scoring. The class given is in vivo. The following applies: BT-11 topical cream 2% (Formula F3) daily to the ear, vs placebo cream. As for the experimental part:
(§2) MC903-induced model. MC903 (2 nM in 20 uL ethanol) was applied to the dorsal ear skin three times per week for nine applications. BT-11 topical cream (2%) (Formula F3 is Table 2) was applied to the ear daily. Mice were scored for erythema, scaling and skin thickness, summarized into a composite disease activity index score through day 19.

In assay [4] the test system is cervical lymph node CD3+CD4+ T cells. The assay can be described thus: Flow cytometry of cervical lymph node cells from the MC903-induced atopic dermatitis model. The class given is in vivo, mice. The conditions noted are these: cervical lymph nodes, BT-11 cream 2% vs placebo cream. As for the experimental part:
as §2, with “19. Analysis. Cervical lymph nodes were excised and crushed by microscope slides. Red blood cells were hypotonically lysed from the resultant suspension. Samples were filtered, washed and centrifuged prior to staining. Production of IFNγ, IL-5, and IL-4 were quantified from CD3+CD4+ T cells by flow cytometry.” for “19.”

On to `O=C(c1cccc(-c2nc3ccccc3[nH]2)n1)N1CCN(C(=O)c2cccc(-c3nc4ccccc4[nH]3)n2)CC1` [BT-11, piperazine-1,4-diylbis((6-(1H-benzo[d]imidazo-2-yl)pyridine-2-yl)methanone)], for which, in assay [1] (FIG. 1B), the “splenic proportion of TNF-positive CD4+ T cells” value is “reduced”. The “splenic proportion of IL-17-positive CD4+ T cells” value in assay [1] (FIG. 1C) is “reduced”. In assay [1] (FIG. 1D), the “splenic proportion of IL-21-positive CD4+ T cells” value was “reduced”. Moreover, the “splenic proportion of IL-6+ cells within all CD45+ immune cells” value in assay [1] (FIG. 1E) is recorded as “reduction”. Besides, the “PASI subscores (erythema, scaling, skin thickness)” value in assay [2] is reported as “reductions in each subscore”. Also, the “disease activity subscores (erythema, scaling, skin thickness)” value in assay [3] is “reductions in each subscore”. In assay [3] (through day 19, FIG. 2A), the “reduction of severity of disease (composite disease activity index score)” value is “approximately 70%”. Also, the “cervical lymph node proportion of IFNγ-positive CD4+ T cells” value in assay [4] (FIG. 2B) was “reduced”. Also, in assay [4] (FIG. 2C), the “cervical lymph node proportion of IL-4-positive CD4+ T cells” value was “reduced”. The “cervical lymph node proportion of IL-5-positive CD4+ T cells” value in assay [4] (FIG. 2D) was “reduced”.

Values taken from patent publication US20220152019A1, “COMPOUNDS, COMPOSITIONS, AND METHODS FOR TREATING INFLAMMATORY OR IMMUNE-MEDIATED CONDITIONS OF SURFACE TISSUES” (Landos Biopharma, Inc., priority 2020, published 2022).
